Source: patent US5859067A, “Use of natural products and related synthetic compounds for the treatment of cardiovascular disease” (priority 1993, dated 1999)
Several values for one entry are separate records, joined by “and”; a condition that tells them apart may be missing. Identical values can stand only once. Like-named read-outs stand apart in the source and are kept apart here.

Assays:
[1] = molecular target: T1, human erythrocyte plasma membrane Ca^2+ -ATPase (Homo sapiens, UniProt P23634); test: Ca^2+ -ATPase assay (erythrocyte membranes; Table 1); format: biochemical
T1 construct: Calmodulin-depleted erythrocyte membranes were prepared by continuous filtration through a hollow fibre; tissue New South Wales Red Cross Transfusion Service, Sydney; host or cells: human packed red blood cells (calmodulin-depleted erythrocyte membranes)
Description: Natural and synthetic compounds of formula (I) were tested for their ability to influence human erythrocyte plasma membrane Ca^2+ -ATPase.
Packed cells were obtained from the New South Wales Red Cross Transfusion Service, Sydney. The whole preparation was carried out at 4° C. 1 unit of packed red cells was washed 3 times with isotonic buffer, containing 130 mM KCl, 20 mM Tris-HCl (pH 7.4), and the cells were collected by centrifugation at 4,000 RPM. The cells were haemolysed by the buffer containing 1 mM EDTA, 10 mM Tris-Hcl (pH 7.4), 0.5 mM PMSF (phenylmethyl sulfonyl fluoride). The haemolyzate mixture was passed through the hollow fibre system until the membrane appeared white, and then washed with 10 mM potassium Hepes (pH 7.4). The membranes were collected by centrifugation at 10,000 RPM for 20 min, the membranes were resuspended in storage buffer containing 130 mM KCl, 2 mM dithiothreitol, 0.5 mM MgCl2, 20 mM potassium-Hepes (pH 7.5). The membranes with protein concentration of 1.5-5.4 mg/ml were stored at -80° C. until required.
Erythrocyte membranes (0.071-0.098 mg/ml) were incubated at 37° C. for one hour in a total volume of 0.4 ml of 65 mM KCl, 20 mM potassium-Hepes, 5 mM MgCl2, 50 μM CaCl2, 0.1 μm calmodulin, 0.1 mM EGTA. The reaction was started by adding 2 mM ATP(pH 7.4). […] The activity of the Mg^2+ -ATPase (assayed in the absence of added CaCl2) was subtracted from the total activity assayed in the presence of Ca^2+. […] A concentrated solution of the test substances was added to the reaction medium before adding ATP.

[2] = system: brine shrimp (Artemia salina Leach); test: Brine shrimp toxicity bioassay; format: in vivo; settings: for LC50: read-out: LC50 brine shrimp
Description: There are many applications of the assay including analysis of toxic substances, anaesthetics, morphine-like substances and cocarcinogenicity of phorbol esters.
6 (K Hostettman, ed.), Academ Press, London, 1-32. DMSO solutions of the substances to be tested were added directly to the vials containing the brine shrimp. As the concentration of DMSO that we wished to use was higher than the recommended 1% v/v testing of the toxicity of the DMSO was therefore necessary.
Brine shrimp toxicity was assayed, except for some minor modifications, according to the method of McLaughlin et al as reported in Brine Shrimp: A convenient general bioassay for active plant constituents, B N Meyer, N R Ferrigni, J E Putman, L B Jacobsen, D E Nhols and J L McLaughlin. […] J L McLaughlin. […] 6 (K Hostettman, ed.), Academ Press, London, 1-32. Ten shrimp were added transferred to each of the vials and the volume adjusted to 4.9 mL. Each dose was performed in triplicate, including the control. In quick succession, the appropriate volume of additional DMSO for each dose, required to achieve a final concentration of 2%, was added before the appropriate volume of test solution. The vials were gently mixed and the time noted. After 24 hours, the number of survivors were counted and % mortality was determined.
The LC50 values were expressed in both μM and μg/mL.

[3] = at 100 μM, read-out: INHIBITION OF Ca^2+ -ATPase PERCENT (%)
[4] = read-out: INHIBITION OF Ca^2+ -ATPase IC50
[5] = read-out: INHIBITION OF Ca^2+ -ATPase PERCENT (%)
[6] = Artemia salina, 24 h, read-out: % Deaths

T1 sequence (P23634 1-1205 isoform P23634-6): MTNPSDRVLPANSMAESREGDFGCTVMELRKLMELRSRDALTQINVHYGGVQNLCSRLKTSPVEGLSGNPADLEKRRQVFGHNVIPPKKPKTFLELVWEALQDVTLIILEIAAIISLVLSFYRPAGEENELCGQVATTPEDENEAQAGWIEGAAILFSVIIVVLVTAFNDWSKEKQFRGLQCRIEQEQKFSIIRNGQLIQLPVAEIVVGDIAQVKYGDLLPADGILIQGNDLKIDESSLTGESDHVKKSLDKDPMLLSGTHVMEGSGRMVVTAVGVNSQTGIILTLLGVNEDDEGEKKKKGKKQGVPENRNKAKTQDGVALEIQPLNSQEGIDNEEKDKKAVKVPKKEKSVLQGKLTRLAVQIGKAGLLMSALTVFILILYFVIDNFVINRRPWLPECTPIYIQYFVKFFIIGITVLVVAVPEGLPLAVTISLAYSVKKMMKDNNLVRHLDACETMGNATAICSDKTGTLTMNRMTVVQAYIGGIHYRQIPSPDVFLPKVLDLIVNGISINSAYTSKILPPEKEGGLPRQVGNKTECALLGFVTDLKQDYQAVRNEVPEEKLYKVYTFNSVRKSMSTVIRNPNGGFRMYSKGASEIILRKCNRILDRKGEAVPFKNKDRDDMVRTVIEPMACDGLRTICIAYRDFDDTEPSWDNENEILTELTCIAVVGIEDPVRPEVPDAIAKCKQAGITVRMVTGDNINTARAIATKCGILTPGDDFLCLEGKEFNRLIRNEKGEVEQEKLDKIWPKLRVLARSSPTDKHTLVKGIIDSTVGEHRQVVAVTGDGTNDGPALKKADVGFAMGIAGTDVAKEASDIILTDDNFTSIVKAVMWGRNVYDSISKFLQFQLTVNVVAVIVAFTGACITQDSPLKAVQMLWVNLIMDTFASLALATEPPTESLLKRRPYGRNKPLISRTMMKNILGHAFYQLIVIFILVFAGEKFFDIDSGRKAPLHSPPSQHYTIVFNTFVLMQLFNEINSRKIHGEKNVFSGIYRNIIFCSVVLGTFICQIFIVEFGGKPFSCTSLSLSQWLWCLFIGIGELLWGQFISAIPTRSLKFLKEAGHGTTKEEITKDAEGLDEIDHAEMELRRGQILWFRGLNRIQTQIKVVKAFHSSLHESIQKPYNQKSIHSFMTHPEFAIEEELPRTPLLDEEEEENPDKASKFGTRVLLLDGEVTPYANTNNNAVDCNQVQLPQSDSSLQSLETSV
T1 sequence (P35613 140-385 partner limits assumed): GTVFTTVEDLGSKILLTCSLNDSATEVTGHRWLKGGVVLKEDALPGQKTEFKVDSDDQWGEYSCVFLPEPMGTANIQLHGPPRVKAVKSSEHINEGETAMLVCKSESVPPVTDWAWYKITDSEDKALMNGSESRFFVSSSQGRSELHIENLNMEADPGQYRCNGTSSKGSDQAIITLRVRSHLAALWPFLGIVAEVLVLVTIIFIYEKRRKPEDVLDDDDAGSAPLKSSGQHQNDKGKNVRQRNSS

Molecule | inhibition at 100 µM [1, 3] | IC50 [1, 4] | LC50 ([2]; Artemia salina, 24 hours) | also measured
Oc1ccccc1CCCCCCCCCCCCCCc1ccccc1O [1,14-bis(2-hydroxyphenyl)tetradecane] | 84% | 28 µM | 1.9 µM and 0.72 µg/mL | 
Oc1ccc(C2CCCCC2)cc1 [4-cyclohexylphenol] | 16% |  |  | IC50 [1]: 271 µM; LC50 ([2]; Artemia salina, 24 h): > 25 µM and > 4.4 µg/mL
CC(C)=CCC/C(C)=C/CC/C(C)=C/Cc1c(O)cc(C)cc1O [grifolin, 2-E,E-farnesyl-5-methyl-resorcinol] | 100% | 22.5 µM | 2.3 µM and 0.75 µg/mL | 
Oc1cc(O)cc(CCCCCCCCCCCCCCc2cc(O)cc(O)c2)c1 [bisnorstriatol, 1,14-bis(3,5-dihydroxyphenyl)tetradecane] | 35% | > 100 µM | 40 µM and 17 µg/mL | inhibition at 500 µM ([1]; at 500 μM): 69.1%; toxicity to brine shrimp (in words) ([2]; 24 hours): relatively low toxicity
CCCCCCCCCc1cc(O)cc(O)c1C(=O)OCC [ethyl 2,4-dihydroxy-6-nonylbenzoate] | 73% | 62 µM | 2.6 µM and 0.8 µg/mL | 
CC(C)(C)c1cc(C(C)(C)C)c(O)c(C(C)(C)C)c1 [2,4,6-tri-tert-butylphenol, reference compound] | 79% |  |  | IC50 [1]: 15 µM
CCCCCCCCCCc1c(Br)c(O)c(Br)c(O)c1C(=O)OCC [ethyl 3,5-dibromo-2,4-dihydroxy-6-decylbenzoate] | 73% | 69 µM | 780 nM and 0.37 µg/mL | 
CCCCCCCCCCCCCc1cc(O)cc(O)c1 [grevillol, 5-tridecylresorcinol] | 44% | 143 µM | 2.8 µM and 0.8 µg/mL | Ca^2+ -ATPase inhibitory activity (in words) [1]: weak; toxicity to brine shrimp (in words) ([2]; 24 hours): moderately toxic
CC(C)=CCC/C(C)=C/CC/C(C)=C/Cc1c(C)cc(O)cc1O [neogrifolin, 4-E,E-farnesyl-5-methyl-resorcinol] | 100% | 23.3 µM | 28 µM and 9 µg/mL | Ca^2+ -ATPase inhibitory activity (in words) [1]: most potent among the alkyl and alkenyl resorcinols tested; relative toxicity to brine shrimp ([2]; neogrifolin compared with grifolin): about ten-fold weaker
Oc1cc(O)cc(CCCCC/C=C\CCCCCCCc2cc(O)cc(O)c2)c1 [grebustol-B, 1,14-bis(3,5-dihydroxyphenyl)tetradec-Z-6-ene] | 90% | 50 µM |  | Ca^2+ -ATPase inhibitory activity (in words) [1]: weaker
Oc1ccc(CCCCCCCCCCCCCCc2ccc(O)cc2)cc1 [1,14-bis(4-hydroxyphenyl)tetradecane] | 5% | 280 µM | 7.9 µM and 3.7 µg/mL | 
CCCCCCCCCc1ccc(O)cc1 [4-nonylphenol] |  |  |  | IC50 [1]: 114 µM; inhibition at 100 µM [1, 5]: 22%; LC50 ([2]; Artemia salina, 24 h): 400 nM and 0.088 µg/mL
CCCCCCCCCCc1ccccc1O [2-decylphenol] | 85% | 42 µM | 680 nM and 0.16 µg/mL | 
CCCCCCCCCCCCc1cc2c(C)cc(=O)oc2cc1O [6-dodecyl-7-hydroxy-4-methylcoumarin] |  |  | > 25 µM and > 8.1 µg/mL | 
CCCCCCCCCc1cc(O)c(C)c(O)c1 [2-methyl-5-nonyl-resorcinol] |  |  | 8.3 µM and 2.1 µg/mL | 
C[S+](C)[O-] [DMSO, dimethyl sulfoxide] |  |  |  | toxicity to brine shrimp (in words) ([2]; 24 hours): No toxicity towards brine shrimp was observed; mortality at 1 % [2, 6]: 0%; mortality at 2 % [2, 6]: 0%; mortality at 3 % [2, 6]: 0%; mortality at 4 % [2, 6]: 0%; mortality at 5 % [2, 6]: 9%; mortality at 7 % [2, 6]: 12%; mortality at 9 % [2, 6]: 18%; mortality at 11 % [2, 6]: 57%; mortality at 13 % [2, 6]: 96%; mortality at 15 % [2, 6]: 100%; mortality at 20 % [2, 6]: 100%; mortality at 25 % [2, 6]: 100%; LC50 brine shrimp, solvent ([2]; solvent): 11 % v/v

Molecule | inhibition at 100 µM [1, 3] | IC50 [1, 4] | LC50 ([2]; Artemia salina, 24 hours) | also measured
nonylphenol [nonylphenol (commercial), reference compound] |  | 27.5 µM |  | INHIBITION OF Ca^2+ -ATPase PERCENT (%) ([1]; at 100 μM): 100%
CCCCCCCCCc1cc(O)cc(O)c1 [5-nonylresorcinol] | 44% | 108 µM | > 100 µM and > 18 µg/mL | 
Cc1c(O)cc(CCCCCCCCCCCCCCc2cc(O)cc(O)c2)cc1O [grebustol-A, 1-(3,5-dihydroxy-phenyl)-14-(3,5-dihydroxy-4-methylphenyl)tetradecane] |  | 17 µM |  | inhibition at 50 µM ([1]; at 50 μM, read-out: INHIBITION OF Ca^2+ -ATPase PERCENT (%)): 100%
CC(C)(C)CC(C)(C)c1ccc(O)cc1 [4-tert-octylphenol, reference compound] |  |  |  | IC50 [1]: 60 µM; inhibition at 100 µM [1, 5]: 94%
Cc1cc(Cc2cc(C)cc(C(C)(C)C)c2O)c(O)c(C(C)(C)C)c1 [2,2'-methylenebis(4-methyl-6-tert-butylphenol), reference compound] |  | 45 µM |  | inhibition at 100 µM [1, 5]: 74%
Cc1cc(C(C)(C)C)c(O)c(C(C)(C)C)c1 [BHT, 2,6-di-tert-butyl-4-methylphenol, reference compound] | 69% | 66 µM |  | 
Cc1c(O)cc(CCCCCCCCCCCCc2cc(O)c(C)c(O)c2)cc1O [1,12-bis(3,5-dihydroxy-4-methylphenyl)dodecane] |  |  | > 25 µM and > 10 µg/mL | 
Oc1ccc(CCCCCCCCCCCCc2ccc(O)cc2)cc1 [1,12-bis(4-hydroxyphenyl)dodecane] |  |  | 3.8 µM and 1.4 µg/mL | 
CCCCCCCCCCCCCCCCCc1cc(O)cc(O)c1 [5-heptadecylresorcinol] |  |  | > 100 µM and > 18 µg/mL | 
Cc1cc(CCCCCCCCCCc2cccc(C)c2O)ccc1O [1-(2-hydroxy-3-methylphenyl)-10-(4-hydroxy-3-methylphenyl)decane] |  |  | 2.2 µM and 0.78 µg/mL | 
Cc1c(O)cc(CCCCCCCCc2cc(O)c(C)c(O)c2)cc1O [1,8-bis(3,5-dihydroxy-4-methylphenyl)octane] |  |  | > 25 µM and > 9 µg/mL | 
CCCCCc1cc(O)cc(O)c1 [5-pentylresorcinol (olivetol), 5-pentylresorcinol, reference compound] |  |  |  | LC50 ([2]; Artemia salina, 24 h): > 100 µM and > 18 µg/mL
CCCCCCCCC(=O)c1ccc(O)cc1 [4-nonanoylphenol] |  |  | 100 nM and 0.024 µg/mL | LC50 ([2]; 24 hours): 0.1 µM
Cc1c(O)cc(CCCCCCCCCCc2cc(O)c(C)c(O)c2)cc1O [1,10-bis(3,5-dihydroxy-4-methylphenyl)decane] |  |  | > 25 µM and > 9.7 µg/mL | 
CC(C)(C)c1cc(O)c(O)c(C(C)(C)C)c1 [3,5-di-tert-butyl-catechol, reference compound] | 76% | 84 µM |  | 
